What was measured:
[1] = Drug uptake in Wistar rat pancreas at 6 mg/kg, iv measured after 0.5 hrs; type: ADME, organism-based; conditions: in vivo
[2] = Drug excretion in Wistar rat urine at 4 mg/kg, iv measured after 4 hrs; type: ADME, organism-based; conditions: read-out: Drug excretion
[3] = Clearance in rat liver microsomes at 50 uM in presence of NADPH by LC-MS/MS analysis; type: ADME, microsome; conditions: read-out: CLH
[4] = Drug uptake in Wistar rat lungs at 6 mg/kg, iv measured after 4 hrs; type: ADME, organism-based, Lung; conditions: in vivo
[5] = Drug uptake in Wistar rat pancreas at 6 mg/kg, iv measured after 4 hrs; type: ADME, organism-based; conditions: in vivo
[6] = Drug uptake in Wistar rat brain at 6 mg/kg, iv measured after 12 hrs; type: ADME, organism-based; conditions: in vivo
[7] = Stability in rat liver microsomes at 50 uM after 150 mins in presence of NADPH by LC-MS/MS analysis; type: ADME, microsome; conditions: read-out: Stability
[8] = Drug uptake in Wistar rat pancreas at 6 mg/kg, iv measured after 8 hrs; type: ADME, organism-based; conditions: in vivo
[9] = Protein binding in human plasma at 2 uM after 4 hrs by LC-MS/MS analysis; type: ADME, cell-free; conditions: read-out: PPB (converted)
[10] = Drug uptake in Wistar rat pancreas at 6 mg/kg, iv measured after 12 hrs; type: ADME, organism-based; conditions: in vivo
[11] = Drug uptake in Wistar rat kidney at 6 mg/kg, iv measured after 0.5 hrs; type: ADME, organism-based; conditions: in vivo
[12] = Drug uptake in Wistar rat liver at 6 mg/kg, iv measured after 8 hrs; type: ADME, organism-based; conditions: in vivo
[13] = Drug excretion in Wistar rat feces at 4 mg/kg, iv measured after 4 hrs; type: ADME, organism-based; conditions: faeces, read-out: Drug excretion
[14] = Drug uptake in Wistar rat spleen at 6 mg/kg, iv measured after 1 hr; type: ADME, organism-based; conditions: in vivo
[15] = Stability in rat plasma at 1 uM after 10 mins by LC-MS/MS analysis; type: ADME, cell-free; conditions: read-out: Stability
[16] = Stability in rat liver microsomes at 50 uM after 40 mins in presence of NADPH by LC-MS/MS analysis; type: ADME, microsome; conditions: read-out: Stability
[17] = Drug uptake in Wistar rat lungs at 6 mg/kg, iv measured after 0.5 hrs; type: ADME, organism-based, Lung; conditions: in vivo
NCI-H460 [18] = experiment: Antitumor activity against human NCI-H460 cells xenografted in nude mouse assessed as inhibition of tumor weight at 3 mg/kg, iv administered once in every 2 days for 14 consecutive days cotreated with 25 mg/kg gefitinib once daily for 14 consecutive days relative to control; type: functional
[19] = Toxicity in Balb/c mouse administered iv three times in a day every 2 days for 15 consecutive days; type: organism-based; conditions: in vivo
[20] = Half life in Wistar rat at 4 mg/kg, iv; type: ADME, organism-based; conditions: in vivo
Cytochrome P450 2C19 = Cytochrome P450 2C19 (Homo sapiens, UniProt P33261); experiment: Inhibition of CYP2C19 in human liver microsomes preincubated for 10 mins followed by NADPH addition measured after 10 mins by LC-MS/MS analysis; type: ADME
[21] = Half life in Wistar rat at 8 mg/kg, iv; type: ADME, organism-based; conditions: in vivo
Rattus norvegicus = experiment: AUC (0 to infinity) in Wistar rat at 8 mg/kg, iv; type: ADME, organism-based; design: dose 8 mg/kg, route intravenous, time infinity; conditions: in vivo
NCI-H460 [22] = experiment: Antitumor activity against human NCI-H460 cells xenografted in nude mouse assessed as inhibition of tumor weight at 9 mg/kg, iv administered once in every 2 days for 14 consecutive days relative to control; type: functional; conditions: 48 h
[23] = Drug uptake in Wistar rat large intestine at 6 mg/kg, iv measured after 0.5 hrs; type: ADME, organism-based; conditions: in vivo
[24] = Cmax in Wistar rat at 4 mg/kg, iv; type: ADME, organism-based; design: dose 4 mg/kg, route intravenous; conditions: in vivo
[25] = Drug uptake in Wistar rat spleen at 6 mg/kg, iv measured after 4 hrs; type: ADME, organism-based; conditions: in vivo
[26] = Drug excretion in Wistar rat feces at 4 mg/kg, iv measured after 2 hrs; type: ADME, organism-based; conditions: faeces, read-out: Drug excretion
[27] = Drug uptake in Wistar rat lungs at 6 mg/kg, iv measured after 8 hrs; type: ADME, organism-based, Lung; conditions: in vivo
[28] = Drug uptake in Wistar rat heart at 6 mg/kg, iv measured after 0.5 hrs; type: ADME, organism-based; conditions: in vivo
NCI-H460 [29] = experiment: Antitumor activity against human NCI-H460 cells xenografted in nude mouse assessed as inhibition of tumor volume at 3 mg/kg, iv administered once in every 2 days for 14 consecutive days cotreated with 25 mg/kg gefitinib once daily for 14 consecutive days relative to control; type: functional
[30] = MRTlast in Wistar rat at 4 mg/kg, iv; type: ADME, organism-based; conditions: in vivo
Mus musculus = experiment: Toxicity in nude mouse xenografted with human NCI-H460 cells assessed as body weight at 6 mg/kg, iv administered once in every 2 days for 14 consecutive days cotreated with 50 mg/kg gefitinib once daily for 14 consecutive days (reference value: 20.6 +/- 1.5 g); type: organism-based; conditions: in vivo, 48 h

Cytochrome P450 2C19, sequence (P33261 whole entry): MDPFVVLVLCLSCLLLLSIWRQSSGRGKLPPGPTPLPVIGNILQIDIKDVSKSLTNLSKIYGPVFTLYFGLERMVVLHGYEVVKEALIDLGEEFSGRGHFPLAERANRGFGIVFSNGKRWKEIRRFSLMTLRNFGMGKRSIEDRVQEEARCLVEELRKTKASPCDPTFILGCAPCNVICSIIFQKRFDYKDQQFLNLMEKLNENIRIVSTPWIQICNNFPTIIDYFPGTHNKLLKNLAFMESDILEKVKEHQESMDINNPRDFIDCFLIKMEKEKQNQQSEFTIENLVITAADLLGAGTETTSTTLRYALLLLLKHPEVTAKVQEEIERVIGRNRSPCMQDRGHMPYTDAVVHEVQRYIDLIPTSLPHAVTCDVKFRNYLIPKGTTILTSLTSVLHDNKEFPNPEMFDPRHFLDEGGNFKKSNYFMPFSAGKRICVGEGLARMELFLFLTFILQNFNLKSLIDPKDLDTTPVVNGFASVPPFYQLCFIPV

[2H]/C(c1nc[nH]c1C(C)(C)C)=c1/[nH]c(=O)/c(=C/c2ccccc2)[nH]c1=O
Drug uptake [1]: 7096.2 ng/mL/g
dose excreted at 4 h [2]: 0.27%
microsomal CLint at 50 µM [3]: 16.3 µL/min/mg
Drug uptake [4]: 49038.9 ng/mL/g
Drug uptake [5]: 1366.3 ng/mL/g
Drug uptake [6]: 83 ng/mL/g
remaining at 2.5 h, 50 µM [7]: 32.9%
Drug uptake [8]: 399 ng/mL/g
fraction unbound at 4 h, 2 µM [9]: 0.021
Drug uptake [10]: 68.2 ng/mL/g
Drug uptake [11]: 7423.8 ng/mL/g
Drug uptake [12]: 1684.3 ng/mL/g
dose excreted at 4 h [13]: 0.11%
Drug uptake [14]: 7146.9 ng/mL/g
remaining at 10 min, 1 µM [15]: 96.8%
remaining at 40 min, 50 µM [16]: 56.5%
Drug uptake [17]: 13471.1 ng/mL/g
inhibition (INH) (NCI-H460 [18]): 53.3%
MTD at 48 h [19]: 15 mg/kg
half-life [20]: 2.27 h
IC50 (Cytochrome P450 2C19): 3.81 µM
half-life [21]: 2.29 h
AUC (Rattus norvegicus): 5808.24 ng·h/mL
inhibition in vivo at 9 mg/kg (NCI-H460 [22]): 58.7%
Drug uptake [23]: 1936.4 ng/mL/g
Cmax [24]: 4420 ng/mL
Drug uptake [25]: 1519.6 ng/mL/g
dose excreted at 2 h [26]: 0%
Drug uptake [27]: 41048.8 ng/mL/g
Drug uptake [28]: 2189.8 ng/mL/g
inhibition (INH) (NCI-H460 [29]): 57.6%
MRT last [30]: 1.76 h
Activity (Mus musculus): 18.5 g
